One series relates to CBA mice on HFD. The series can be described thus: Crossover HFD / test material-HFD (2 mg/g) at housing and thermoneutral conditions. It counts as in vivo. On the procedure:
14 weeks old CBA mice were randomised into HFD and test material-HFD (2 mg/g) groups for 2 weeks while housed at 22° C. The two groups were then switched from HFD to test material-HFD and vice versa for an additional 4.5 weeks before transferred from 22° C. to 30° C. (thermoneutrality). After one week at 30° C. the diet was switched again and one week after the switch core body temperature were determined.
Food intake was measured weekly by giving each cage 200 g pellet. After one week, the amount of pellets consumed were calculated and adjusted according to the number of animals/cage. Body weight was measured weekly. Body composition was assessed using EchoMRI.

The test system of series [1] is diet-induced obese C57BL/6J mice. The series can be described thus: Combination therapy AMPK activator + SGLT2 inhibitor in DIO mice. It counts as in vivo. The note with it: 2 weeks oral gavage, Compound 1 75 mg/kg, canagliflozin 10 mg/kg. The method, then:
Male C57BL/6J mice, 8 weeks of age were purchased from Jackson, Charles River Laboratories, Inc. (Germany). All animals were housed in the Umeå University animal facility (Umeå Centre for Comparative Biology; UCCB) with a 12:12 hour light-dark cycle (lights on at 6 a.m.) and a constant temperature of 21° C. The animals were ear marked with a unique identification number, and groups of 5 mice were housed in transparent polycarbonate cages that comply with the requirements of the Code of Practice for the housing and care of animals used in scientific procedures. Wood chips were used as bedding material and environmental enrichment was provided. Animals were allowed to acclimate for 15 weeks to their new environment before the onset of the study. The animals were allowed ad libitum access to tap water throughout the accommodation and study period. During the acclimation period, the animals were allowed a standard pelleted diet (CRM (E) Rodent, Special Diets Services, Scanbur BK, Sweden). At the start of the study, the standard diet was changed to a very high fat diet (vHFD; Cat. No. D12492, Research Diets, Inc.) and this diet was kept throughout the whole study period. All of the procedures were approved by the Local Ethics Review Committee on Animal Experiments, Umeå Region.
23 Weeks old male C57BL/6J mice were fed HFD to promote diet-induced obesity (DIO) and administered once daily by oral gavage; vehicle (phosphate buffer pH 7.3, 2% w/v methyl cellulose; n=11), canagliflozin 10 mg/kg (n=14), Compound 1 at 75 mg/kg (n=14) and the combination of canagliflozin 10 mg/kg and Compound 1 at […] (n=15). After 2 weeks of treatment, fasted (6 hour) blood glucose and plasma insulin levels (determined in tail vein blood samples) were analysed. Food intake and weight were monitored throughout the study.
Blood samples were collected from the tail vein in Potassium-EDTA vials and plasma was separated by centrifugation and stored at −20° C. until assayed. Plasma insulin was determined with mouse insulin ELISA (Ultra Sensitive Mouse insulin ELISA Kit). Glucose concentrations were analysed in tail vein blood using a OneTouch® Ultra®2 Blood Glucose Meter (LifeScan, Inc).
Results shown in the figures are expressed as means±standard error of the mean (S.E.M.) for the number of animals per group. Statistical significance between the control group and the three treatment groups were analysed by Student's t-test, with P<0.05 considered statistically significant.

Another series concerns INS-1E cells. Put plainly: Autophagic flux assay. It counts as cell-based. The note with it: 5 μM, 24 h, ± 100 nM Bafilomycin A1. The method, then: INS-1E cells were incubated for 24 h with or without 5 μM test material in the presence or absence of 100 nM Bafilomycin A1 (InvivoGen #tlrl-baf1) during the last 60 min of incubation. Levels of LC3II were determined by Western blot analysis and quantified.

Series [2] has as its system AMPK in rat insulinoma INS-1 cells. Put plainly: AMPK activation in INS-1 insulinoma cells. It counts as cell-based. The note with it: 2.5, 5, 10 μM, 2 hours. On the procedure: All cell lines were lysed in 0.1 M Tris-HCl, pH 6.8, 2% SDS, 10 mM sodium fluoride (SIGMA #S7920), 10 mM β-glycerophosphate (SIGMA #G6376), and 1 mM sodium vanadate (SIGMA #72060) and supernatant collected after 1 minute at 14,000 rpm. Islets (human and mouse) were lysed in 0.1 M Tris-HCl, pH 6.8, 2% SDS, protease inhibitor (Roche #04 693 124 001) and phosphatase inhibitor (Roche #04 906 837 001). Right calf muscle, heart, iWAT, and interscapular BAT was crushed in a pestle using liquid nitrogen and homogenised in ice cold RIPA buffer (150 mM sodium chloride (SIGMA #S7653), 1.0% NP40 (USB), 0.5% sodium deoxycholate (SIGMA #D6750), 0.1% SDS, 50 mM Tris pH 8.0, 20 mM sodium pyrophosphate (SIGMA #71515), 10 mM sodium fluoride, 10 mM β-glycerolphosphate, 1 mM sodium vanadate and protease inhibitor cocktail (Roche #04693124001), 1 tablet/10 ml lysis buffer). The supernatant was collected after 2 min at 14,000 rpm. This procedure was repeated until all fat was eliminated and the supernatant was clear, at 4° C. Samples were analysed on 4-15% polyacrylamide gels. Values were normalised toward AMPKα, β-Actin, GAPDH or the respective non-phosphorylated counterpart.
Table 3 contains origin of cell lines, growth conditions and settings for activation of AMPK via the test material. […]

SMILES strings stand for the structures.

The values below come from US20220023269A1, “Methods Of Treating Diabetes In Severe Insulin-Resistant Diabetic Subjects” (Balticgruppen Bio AB, priority 2018, published 2022).

For the molecule `O=C(Nc1nc(=O)n(Cc2ccc(Cl)cc2)s1)c1ccc(Cl)cc1` [test material, 4-chloro-N-[2-[(4-chlorophenyl)methyl]-3-oxo-1,2,4-thiadiazol-5-yl]benzamide], the body weight gain result in the series with CBA mice on HFD (2 mg/g in HFD, day 1-14, housing temperature) was “gained almost no weight”. In the series with CBA mice on HFD (30° C. from day 49), the “body weight at thermoneutrality, continued on test material-HFD” value was “still averted weight gain”. For the same molecule, the “increase in core temperature vs HFD (nonsignificant)” value in the series on CBA mice on HFD (30° C. housing) is 0.2 °C. The molecule further yielded a core temperature with CBA mice on HFD (30° C. housing, one week after switch, n=5) of 37.9 °C. Moreover, in the series with CBA mice on HFD (30° C., switch at day 57), the “body weight after switch from HFD to test material-HFD at thermoneutrality” value is recorded as “rapidly started to lose weight”. The “body weight after switch from HFD to test material-HFD” value in the series with CBA mice on HFD (switch at day 15, housing temperature) is listed as “rapidly started to lose weight”. Further, the HOMA-IR result in series [1] was “statistically significant (***) reduction”. The fasted plasma insulin entry in series [1] (6 hour fast) was “statistically significant (***) reduction”. In addition, the “autophagic flux (LC3II)” value with INS-1E cells was “enhanced autophagic flux”. Further, in series [2], the pAMPKα result is recorded as “directly increased pAMPKα”.
